Test results as given in US9744164B2, “Neuroprotective polyphenol analogs” (Salk Institute for Biological Studies, priority 2011, dated 2017).

Assays:
[1] = test system: N9 microglial cells; experiment: anti-inflammatory assay, LPS-induced microglial activation (NO release); type: cell-based, mouse; settings: bacterial lipopolysaccharide, derivative 1-10 μM, 24 hr
Summary of the method: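 Mouse N9 microglia in DME/7.5% DFCS stimulated with 10 μg/ml LPS alone or with derivatives (1-10 μM) for 24 hr. NO in cleared medium measured by Griess reagent, 10 min at room temperature, absorbance at 550 nm. Fisetin (10 μM) as positive control.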

[2] = test system: Nrf2; experiment: Nrf2 induction, SDS-PAGE and Western blotting of nuclear extracts; type: cell-based; settings: cells treated 1, 2 and 4 hr at most protective concentration
Method: SDS-PAGE and immunoblotting. For immunoblotting of Nrf2, nuclear extracts were prepared as described (Schreiber, et al., Nucleic Acids Res. (1989) 17 (15), 6419) from untreated cells and cells treated with the Fisetin derivatives for 1, 2 and 4 hr. Fisetin was used as a positive control. […] Protein concentrations were determined using the BCA protein assay (Pierce). Equal amounts of protein were solubilized in 2.5× SDS-sample buffer, separated on 10% SDS-polyacrylamide gels and transferred to nitrocellulose. Equal loading and transfer of the samples was confirmed by staining the nitrocellulose with Ponceau-S. Transfers were blocked for 1 hr at room temperature with 5% nonfat milk in TBS/0.1% Tween 20 and then incubated overnight at 4° C. in the primary antibody diluted in 5% BSA in TBS/0.05% Tween 20. The primary antibodies used were: anti-Nrf2 (#SC13032; 1/1000) from Santa Cruz Biotechnology (Santa Cruz, Calif.) and anti-β-actin (#5125; 1/20,000) from Cell Signaling (Beverly, Mass.). The transfers were rinsed with TB S/0.05% Tween 20 and incubated for 1 hr at room temperature in horseradish peroxidase-goat anti-rabbit or goat anti-mouse (Biorad, Hercules, Calif.) diluted 1/5000 in 5% nonfat milk in TBS/0.1% Tween 20. The immunoblots were developed with the Super Signal reagent (Pierce, Rockford, Ill.).
The transcription factor Nrf2 plays a key role in regulating GSH metabolism in many different cell types (Lewerenz, et al., Antioxidant & Redox Signaling. (2011) 14, 1449-1465). We have shown that Fisetin can induce Nrf2 and this correlates with its ability to enhance GSH levels (Maher, P. et al., Genes. Nutr. (2009) Sep. 10). To determine if the derivatives which can maintain GSH levels do so by increasing Nrf2 we looked at Nrf2 levels in the nuclei of derivative-treated cells using Fisetin as a positive control (Table 4). […] This was particularly true for the derivatives based on the quinoline scaffold where none of them increased Nrf2 despite being very effective at maintaining GSH levels.
The ability of the derivatives that maintain GSH levels to induce the transcription factor Nrf2 was assayed by SDS-PAGE and Western blotting of nuclear extracts of untreated and derivative-treated cells. Fisetin treatment was used as a positive control.

[3] = Shia, et al. 2009; cited from earlier work
[4] = test system: Akita mouse; settings: Maher et al. 2011; cited from earlier work
[5] = test system: mice; settings: oral dose; cited from earlier work
[6] = test system: PC12 cells; experiment: glucose starvation assay; type: cell-based; settings: PC12 cells starved for glucose, MTT 24 hr
Method: FIG. 5C—PC12 cells were glucose-deprived then were incubates in the absence or presence of Baicalein. Cell viability was determined 24 hr later using the MTT assay. […] When these cells are starved for glucose, there is approximately 70% maximal survival in the presence of NGF. Baicalein promotes over 80% survival (FIG. 5C).

[7] = test system: RGC-5 nerve cells; experiment: chemical ischemia model (IAA) in RGC-5 cells; type: cell-based; settings: RGC-5, 30 μM IAA 2 hr, Baicalein 5-25 μM, also added 2 hrs after insult
Method: FIG. 5D—RGC-5 nerve cells were treated with 30 μM iodoacetic acid for 2 hr in the presence or absence of 5-25 μM Baicalein. In some experiments, Baicalein was added 2 hr after the ischemic event. Cell survival (%) was measured after 24 hr by the MTT assay. Baicalein added before (□) or 2 hr after (●) ischemia. […] When these cells are starved for glucose, there is approximately 70% maximal survival in the presence of NGF. Baicalein promotes over 80% survival (FIG. 5C).

Structure (SMILES)	microglia (anti-inflammatory activity) [1]	Nrf2 (induction of transcription factor Nrf2) [2]	also measured
Oc1ccc(-c2cc(OC3CCCC3)c3ccccc3n2)cc1O [CMS-121, 4-cyclopentyloxy-2-(3,4-dihydroxyphenyl)quinoline]	82%	No	
O=c1c(O)c(-c2ccc(O)c(O)c2)oc2cc(O)ccc12 [Fisetin, 3,7,3′,4′-tetrahydroxy flavone]	80%	Yes	bioavailability [3]: poor; elevation of blood sugar [4]: no effect; kidney hypertrophy and albuminuria [4]: reduced; memory [5]: potentiates memory equally as well as rolipram
COc1ccc(/C=C/C(=O)c2cc(C)c(C)cc2O)cc1OCc1ccccc1 [CMS-086, (E)-3-(3-(benzyloxy)-4-methoxyphenyl)-1-(2-hydroxy-4,5-dimethylphenyl)prop-2-en-1-one]	70%	Yes	
O=c1cc(-c2ccccc2)oc2cc(O)c(O)c(O)c12 [Baicalein, 5,6,7-trihydroxyflavone]			survival [6]: over 80%; cell death in chemical ischemia model [7]: prevents cell death
CCOc1cc(-c2ccc(O)c(O)c2)nc2ccccc12 [CMS-023, 4-ethoxy-2-(3,4-dihydroxyphenyl)quinoline]	90%	No	
O=c1c(O)c(-c2ccc(O)c(O)c2)oc2ccccc12 [CMS-04P, reference compound]	80%	Yes	
O=c1c(O)c(-c2ccc(N3CCCC3)c(O)c2)oc2c1ccc1ccccc12 [CMS-140, 3-hydroxy-2-(3-hydroxy-4-(pyrrolidin-1-yl)phenyl)-4H-benzo[h]chromen-4-one]	50%	No	
COc1cc(-c2ccc(O)c(O)c2)nc2ccccc12 [CMS-007, 4-methoxy-2-(3,4-dihydroxyphenyl)quinoline]	85%	No	
CC(C)Oc1cc(-c2ccc(O)c(O)c2)nc2ccccc12 [CMS-024, 4-isopropoxy-2-(3,4-dihydroxyphenyl)quinoline]	80%	No	
